Here are results for two compounds from ChEMBL document CHEMBL5131516, “The Ascension of Targeted Covalent Inhibitors” (J Med Chem, 2022).

Experiment [1] can be described thus: Inhibition of wild-type EGFR phosphorylation in human NCI-H1819 cells. Format: cell-based.
Experiment [2] addresses T1, Tyrosine-protein kinase Tec (Homo sapiens, UniProt P42680).
T1 sequence (P42680 whole entry): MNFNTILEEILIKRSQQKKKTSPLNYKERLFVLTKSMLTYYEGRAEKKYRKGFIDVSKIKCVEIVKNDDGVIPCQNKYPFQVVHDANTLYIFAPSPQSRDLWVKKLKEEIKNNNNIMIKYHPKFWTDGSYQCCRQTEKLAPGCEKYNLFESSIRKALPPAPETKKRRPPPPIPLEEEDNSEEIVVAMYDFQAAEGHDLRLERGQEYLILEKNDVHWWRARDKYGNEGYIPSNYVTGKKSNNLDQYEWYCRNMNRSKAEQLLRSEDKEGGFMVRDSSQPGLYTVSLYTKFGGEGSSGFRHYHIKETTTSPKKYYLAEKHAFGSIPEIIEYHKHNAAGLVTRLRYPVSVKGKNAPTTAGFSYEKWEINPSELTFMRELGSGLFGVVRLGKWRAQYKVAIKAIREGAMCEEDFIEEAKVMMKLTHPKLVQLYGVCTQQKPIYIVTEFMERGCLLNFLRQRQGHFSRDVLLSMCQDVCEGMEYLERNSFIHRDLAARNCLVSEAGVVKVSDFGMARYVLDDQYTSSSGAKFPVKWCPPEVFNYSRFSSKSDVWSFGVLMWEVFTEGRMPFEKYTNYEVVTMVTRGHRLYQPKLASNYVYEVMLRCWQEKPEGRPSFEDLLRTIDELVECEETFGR
Description: Inhibition of TEC (unknown origin)

In turn, `COc1cc2ncnc(Nc3ccc(F)c(Cl)c3)c2cc1NC(=O)/C=C/CN1CCCCC1` [DACOMITINIB ANHYDROUS] gave an EC50 in experiment [1] of 29 nM. As to `C=CC(=O)N1CCC([C@@H]2CCNc3c(C(N)=O)c(-c4ccc(Oc5ccccc5)cc4)nn32)CC1` [ZANUBRUTINIB], in experiment [2], the half-maximal inhibitory concentration (IC50) is 44 nM.

As a reminder, the EC50 is the concentration needed to bring the measured effect to its halfway point. Lower therefore signals a more potent agent. The IC50 is the point on the concentration scale where inhibition reaches its midpoint. High values mean lower potency, low ones higher potency.
